In the oligonucleotide strings, read from the 5' end, every base follows the letter of its sugar. An asterisk marks phosphorothioate; unmarked linkages are phosphodiester. Other units and linkages are bracketed, terminal groups are in braces. A string of capitals states the bases alone. e = 2'-O-(2-methoxyethyl) (MOE); [5mC] = 5-methylcytosine; d = 2'-deoxy (DNA)
test system: human growth hormone receptor mRNA; assay: Inhibition of human growth hormone receptor mRNA levels in MCF7 cells, quantitative real-time PCR; type: cell-based; parameters: concentration or dose not given beside the values; details: averages from three experiments
Method: The human breast carcinoma cell line MCF-7 was obtained from the American Type Culture Collection (Manassas, Va.). MCF-7 cells were routinely cultured in DMEM low glucose (Gibco/Life Technologies, Gaithersburg, Md.) supplemented with 10% fetal calf serum (Gibco/Life Technologies, Gaithersburg, Md.). Cells were routinely passaged by trypsinization and dilution when they reached 90% confluence. Cells were seeded into 96-well plates (Falcon-Primaria #3872) at a density of 7000 cells/well for use in RT-PCR analysis.
When cells reached 65-75% confluency, they were treated with oligonucleotide. For cells grown in 96-well plates, wells were washed once with 100 μL OPTI-MEM™-1 reduced-serum medium (Invitrogen Corporation, Carlsbad, Calif.) and then treated with 130 μL of OPTI-MEM™-1 containing 3.75 μg/mL LIPOFECTIN™ (Invitrogen Corporation, Carlsbad, Calif.) and the desired concentration of oligonucleotide. Cells are treated and data are obtained in triplicate. After 4-7 hours of treatment at 37° C., the medium was replaced with fresh medium. Cells were harvested 16-24 hours after oligonucleotide treatment.
Total RNA was isolated using an RNEASY 96™ kit and buffers purchased from Qiagen Inc. (Valencia, Calif.) following the manufacturer's recommended procedures. Briefly, for cells grown on 96-well plates, growth medium was removed from the cells and each well was washed with 200 μL cold PBS. 150 μL Buffer RLT was added to each well and the plate vigorously agitated for 20 seconds. 150 μL of 70% ethanol was then added to each well and the contents mixed by pipetting three times up and down. The samples were then transferred to the RNEASY 96™ well plate attached to a QIAVAC™ manifold fitted with a waste collection tray and attached to a vacuum source. Vacuum was applied for 1 minute. 500 μL of Buffer RW1 was added to each well of the RNEASY 96™ plate and incubated for 15 minutes and the vacuum was again applied for 1 minute. An additional 500 μL of Buffer RW1 was added to each well of the RNEASY 96™ plate and the vacuum was applied for 2 minutes. 1 mL of Buffer RPE was then added to each well of the RNEASY 96™ plate and the vacuum applied for a period of 90 seconds. The Buffer RPE wash was then repeated and the vacuum was applied for an additional 3 minutes. The plate was then removed from the QIAVAC™ manifold and blotted dry on paper towels. The plate was then re-attached to the QIAVAC™ manifold fitted with a collection tube rack containing 1.2 mL collection tubes. RNA was then eluted by pipetting 140 μL of RNAse free water into each well, incubating 1 minute, and then applying the vacuum for 3 minutes.
Quantitation of growth hormone receptor mRNA levels was accomplished by real-time quantitative PCR using the ABI PRISM™ 7600, 7700, or 7900 Sequence Detection System (PE-Applied Biosystems, Foster City, Calif.) according to manufacturer's instructions. This is a closed-tube, non-gel-based, fluorescence detection system which allows high-throughput quantitation of polymerase chain reaction (PCR) products in real-time. As opposed to standard PCR in which amplification products are quantitated after the PCR is completed, products in real-time quantitative PCR are quantitated as they accumulate. This is accomplished by including in the PCR reaction an oligonucleotide probe that anneals specifically between the forward and reverse PCR primers, and contains two fluorescent dyes. A reporter dye (e.g., FAM or JOE, obtained from either PE-Applied Biosystems, Foster City, Calif., Operon Technologies Inc., Alameda, Calif. or Integrated DNA Technologies Inc., Coralville, Iowa) is attached to the 5′ end of the probe and a quencher dye (e.g., TAMRA, obtained from either PE-Applied Biosystems, Foster City, Calif., Operon Technologies Inc., Alameda, Calif. or Integrated DNA Technologies Inc., Coralville, Iowa) is attached to the 3′ end of the probe. When the probe and dyes are intact, reporter dye emission is quenched by the proximity of the 3′ quencher dye. […]

| Substance | % INHIB |
| --- | --- |
| 272320 (antisense eA*eG*eA*eT*eT*dG*dT*dG*dT*dT*d[5mC]*dA*d[5mC]*d[5mC]*dT*e[5mC]*e[5mC]*eT*e[5mC]*eT) [compound 272320] | 70% |
| 272321 (antisense eA*eA*e[5mC]*e[5mC]*e[5mC]*dA*dA*dG*dA*dG*dT*d[5mC]*dA*dT*d[5mC]*eA*e[5mC]*eT*eG*eT) [compound 272321] | 64% |
| 272322 (antisense e[5mC]*eT*eG*eG*e[5mC]*dT*d[5mC]*dA*dT*d[5mC]*dA*dA*dT*dA*dT*e[5mC]*eT*eA*eG*e[5mC]) [compound 272322] | 84% |
| 272323 (antisense eT*eG*eT*eG*eT*d[5mC]*dT*dG*dA*dT*dT*d[5mC]*d[5mC]*dT*d[5mC]*eA*eG*eT*e[5mC]*eT) [compound 272323] | 67% |
| 272324 (antisense eT*eA*eT*eG*eT*d[5mC]*dA*dT*dT*dG*dG*d[5mC]*dA*dT*dT*eG*eA*eA*eA*eT) [compound 272324] | 53% |
| 272325 (antisense eA*eA*eG*eG*e[5mC]*dA*dT*dA*dA*dG*dA*dG*dA*dT*d[5mC]*eT*eG*e[5mC]*eT*eT) [compound 272325] | 66% |
| 272326 (antisense eA*e[5mC]*eT*e[5mC]*eA*dG*d[5mC]*dT*d[5mC]*d[5mC]*dT*dT*d[5mC]*dA*dG*eT*eA*eG*eG*eA) [compound 272326] | 77% |
| 272327 (antisense eG*eG*eA*e[5mC]*eA*dT*d[5mC]*d[5mC]*d[5mC]*dT*dG*d[5mC]*d[5mC]*dT*dT*eA*eT*eT*e[5mC]*eT) [compound 272327] | 60% |
| 272328 (antisense eG*eG*e[5mC]*eA*eT*dT*dG*dT*d[5mC]*d[5mC]*dA*dT*dA*dA*dG*eG*eA*eA*eG*eT) [compound 272328] | 85% |
| 272329 (antisense eA*e[5mC]*eT*eT*eT*dT*dT*dG*dG*d[5mC]*dA*dT*d[5mC]*dT*dG*e[5mC]*e[5mC]*eT*e[5mC]*eA) [compound 272329] | 63% |
| 272330 (antisense eG*eA*eT*eG*e[5mC]*dA*d[5mC]*dT*dT*dT*dT*dT*dG*dG*d[5mC]*eA*eT*e[5mC]*eT*eG) [compound 272330] | 47% |
| 272331 (antisense e[5mC]*eA*eG*eT*e[5mC]*dG*d[5mC]*dA*dT*dT*dG*dA*dG*dT*dA*eT*eG*eA*eG*eG) [compound 272331] | 67% |
| 272332 (antisense e[5mC]*eT*e[5mC]*eT*eT*dT*dG*dT*d[5mC]*dA*dG*dG*d[5mC]*dA*dA*eG*eG*eG*e[5mC]*eA) [compound 272332] | 75% |
| 272333 (antisense eG*eT*eG*e[5mC]*eT*d[5mC]*dA*d[5mC]*dA*dT*dA*dG*d[5mC]*d[5mC]*dA*e[5mC]*eA*eT*eG*eA) [compound 272333] | 72% |
| 272334 (antisense eA*eA*eG*eA*eA*dA*dG*dG*d[5mC]*dT*dA*dA*dG*dG*d[5mC]*eA*eT*eG*eA*eT) [compound 272334] | 61% |
| 272335 (antisense eA*eA*eA*eT*eA*d[5mC]*dG*dT*dA*dG*d[5mC]*dT*d[5mC]*dT*dT*eG*eG*eG*eA*eA) [compound 272335] | 47% |
| 272336 (antisense e[5mC]*eA*eA*eT*e[5mC]*dA*d[5mC]*dT*dG*d[5mC]*dT*dA*d[5mC]*dT*dA*eA*eA*e[5mC]*eA*eG) [compound 272336] | 69% |
| 272337 (antisense eA*eA*eA*e[5mC]*eA*dT*dA*dG*d[5mC]*d[5mC]*dA*dT*dT*d[5mC]*dA*eA*eT*eG*e[5mC]*eT) [compound 272337] | 39% |

| Substance | % INHIB |
| --- | --- |
| 272338 (antisense eG*eT*eG*e[5mC]*eT*dA*dT*dG*dG*dT*dT*dT*dG*d[5mC]*dA*eT*eT*e[5mC]*eA*eA) [compound 272338] | 78% |
| 272339 (antisense eG*eT*eT*eT*eT*dA*d[5mC]*dA*dT*dA*dT*d[5mC]*d[5mC]*dA*dA*eA*e[5mC]*eT*eA*eT) [compound 272339] | 72% |
| 272340 (antisense e[5mC]*eA*eT*e[5mC]*eA*dA*d[5mC]*d[5mC]*dA*dA*dG*dA*dT*dT*dT*eG*eG*eT*eG*eA) [compound 272340] | 69% |
| 272341 (antisense eG*eA*eG*eG*e[5mC]*dT*dA*dT*dA*dG*dA*dT*d[5mC]*dT*dT*eA*eT*e[5mC]*eT*e[5mC]) [compound 272341] | 65% |
| 272342 (antisense eT*eA*eG*eT*eG*dA*dG*dA*dA*dA*dG*dA*dA*dA*dG*eT*eT*eT*e[5mC]*eT) [compound 272342] | 45% |
| 272343 (antisense eA*eA*eT*eG*e[5mC]*dT*d[5mC]*dT*d[5mC]*dA*dA*dG*dA*dA*dT*eG*eA*eT*eG*eT) [compound 272343] | 48% |
| 272344 (antisense eA*e[5mC]*eA*e[5mC]*eT*d[5mC]*dA*dA*dT*dT*d[5mC]*dT*dA*dG*d[5mC]*eT*eT*eT*eT*e[5mC]) [compound 272344] | 60% |
| 272345 (antisense e[5mC]*eA*eT*e[5mC]*eT*dA*dT*dT*dA*d[5mC]*dA*dA*dA*dT*dA*eA*e[5mC]*eA*eT*eG) [compound 272345] | 24% |
| 272346 (antisense e[5mC]*eT*e[5mC]*eT*eT*dG*dG*dA*dG*dA*dA*dA*dA*d[5mC]*d[5mC]*eA*eT*eA*eG*e[5mC]) [compound 272346] | 67% |
| 272347 (antisense eT*e[5mC]*eT*eA*e[5mC]*dA*d[5mC]*dT*dG*dA*dT*dG*dA*dT*dA*e[5mC]*eT*eT*eT*eA) [compound 272347] | 62% |
| 272348 (antisense e[5mC]*eA*e[5mC]*eA*eG*d[5mC]*dT*dT*dT*dG*dA*dA*dT*dT*dG*eA*eA*eT*eT*eA) [compound 272348] | 57% |
| 272349 (antisense eA*eG*eT*e[5mC]*eT*dT*d[5mC]*d[5mC]*dA*dA*dA*d[5mC]*dA*d[5mC]*dA*e[5mC]*eA*eG*e[5mC]*eT) [compound 272349] | 68% |
| 272350 (antisense eA*eG*eG*e[5mC]*eT*dG*dT*dT*dG*dT*dG*dA*dA*dA*dT*eA*eG*eT*eA*eA) [compound 272350] | 67% |
| 272351 (antisense eA*eT*eA*eG*eA*dA*dA*dT*dG*dT*dT*dG*dT*d[5mC]*dA*eG*eG*e[5mC]*eT*eG) [compound 272351] | 57% |
| 272352 (antisense e[5mC]*e[5mC]*eA*eA*eA*dA*dT*dG*dA*d[5mC]*dA*dT*dT*d[5mC]*dT*eG*eA*eG*eA*e[5mC]) [compound 272352] | 77% |
| 272353 (antisense eA*eT*eA*eA*eT*dG*dG*d[5mC]*dT*dT*dA*dT*dG*dT*dG*eG*e[5mC]*e[5mC]*eA*e[5mC]) [compound 272353] | 72% |
| 272354 (antisense eA*eG*eT*eT*eA*dT*dG*dT*dG*dA*d[5mC]*d[5mC]*d[5mC]*dT*dG*eA*eT*eT*eG*eA) [compound 272354] | 65% |
| 272355 (antisense eT*eT*eG*eA*eG*dT*dG*dT*dT*d[5mC]*d[5mC]*dT*dA*dA*dA*eA*eT*eG*eA*eA) [compound 272355] | 24% |
